Four molecules from PubChem BioAssay AID2060493 (Molecular Pharmacology Branch, DTP, NCI, 2025) can be followed below.

The test relates to 616215-338-R-J1-PDC tumor spheroids, viability. Nature of the test: Anticancer human tumor 616215-338-R-J1-PDC patient-derived colon adenocarcinoma cell line growth inhibition [GQUAD]. As to conditions: spheroids with HUVEC and MSC; for viability, T/C: stronger effect = lower value. An excerpt:
DNA G-quadruplex Stabilizer Agents in Combinations in Complex Spheroids
A high-throughput screen of multi-cell type tumor spheroids was designed to identify active combinations of DNA G-quadruplex stabilizer agents and targeted small molecules. Complex spheroids include a stromal component modeled by human endothelial cells (HUVEC) and fibroblasts modeled by human mesenchymal stem cells (MSCs). The concentration ranges selected for each drug and investigational agent were based upon clinically achievable concentrations if the clinical Cmax of the agent was known.
Compounds. The drugs and investigational agents: pidnarulex (CX-5461; NSC782164), APTO-253 (NSC789042), BRACO-19 (NSC847499), peposertib (NSC802822), ceralasertib (NSC780249), elimusertib (NSC800525), camonsertib (NSC841442), AZD-1390 (NSC803789), olaparib (NSC753686), talazoparib (NSC767125), ART-558 (NSC835418), sotorasib (NSC818433), MRTX-1133 (NSC836407), SN-38 (NSC673596), topotecan (NSC609699), etoposide (NSC141540), doxorubicin (NSC123127), gemcitabine (NSC613327), 5-fluorouracil (NSC19893), paclitaxel (NSC125973), vemurafenib (NSC761431), panobinostat (NSC761190), R-306465 (JNJ-16241199; NSC773264), adavosertib (NSC754352), TP-3654 (NSC805149), carboplatin (NSC241240), KSQ-4279 (NSC840948), and staurosporine (NSC755774) were obtained from the National Cancer Institute (NCI) Developmental Therapeutics Program Chemical Repository (34). The FDA-approved anticancer drug set is available from the NCI Developmental Therapeutics Program. […] The stock solutions were prepared in dimethyl sulfoxide (DMSO, Sigma-Aldrich, St. Louis, MO, cat. D2650) at 800-fold the tested concentration and stored at -70 degrees C prior to their use. All drugs and investigational agents were tested over a range starting from a high concentration at or near the clinical Cmax and decreasing in half-log increments. If the clinical Cmax for an agent had not been determined, the highest concentration tested was 10 microM.
2.3 Cell Culture. All cells were maintained in an incubator at 37 degrees C and 5% CO2 with 95% humidity. The PDC lines were cultured according to standard operating procedures established by the NCI PDMR. All PDCs were thawed and cultured in Matrigel-coated flasks prepared with a working solution of 1X Ham's F-12 nutrient mix, without supplementation (Invitrogen, cat. 11765054), 100 U/mL penicillin-streptomycin (Invitrogen, cat. 15140122), and 2.5% Matrigel (Corning Inc., cat. 354248) for the first three passages. The 857933-349-R-J2-PDC line was cultured in 6C/Colon 1B media, which includes advanced DMEM/F-12 (Thermo Fisher Scientific, cat. 12634028), 10 mM HEPES (Thermo Fisher Scientific, cat. 15630080), 1X GlutaMAX supplement (Thermo Fisher Scientific, cat. 35050061), 0.1 mg/mL primocin (InvivoGen, cat. ant-pm-2), 10% defined fetal bovine serum, heat inactivated (HyClone Laboratories Inc., cat. SH30070.03HI), 50% L-WRN conditioned media (ATCC, cat. CRL-3276), 1.25 mM N-Acetyl-L-cysteine (Sigma-Aldrich, cat. A9165), 10 mM nicotinamide (Sigma-Aldrich, cat. N0636), 1X B-27 supplement (Thermo Fisher Scientific, cat. 17504044), 1X N-2 supplement (Thermo Fisher Scientific, cat. 17502048), 10 microM Y-27632 dihydrochloride (Tocris Bioscience, cat. 1254), and 50 ng/mL human EGF recombinant protein (Thermo Fisher Scientific, cat. PHG0311). The 485176-168-R4-J1-PDC line was cultured in Panc media, which includes all 6C/Colon 1B media components plus 100 ng/mL human FGF-10 (Thermo Fisher Scientific, cat. 100-26), 500 nM SB-431542 (Selleckchem, cat. S1067), and gastrin (Tocris, cat. 3006).
[…]

Several values for one entry are separate records, joined by “and”; a condition that tells them apart may be missing. Equal values may be shown once.

A word on the viability, T/C: it is the result in the treated group divided by that in the control group, in per cent. One may read the IC50 as the point on the concentration scale where inhibition reaches its midpoint.
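Note: spheroids exposed to agents for 7 days before readout.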
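Throughout, for viability, T/C: percent viability relative to DMSO vehicle control wells taken as 100%.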

Regarding `O=C(NO)c1cnc(N2CCN(S(=O)(=O)c3ccc4ccccc4c3)CC2)nc1`, the viability, T/C is 101% and 114% and 112% (compound 0.0316 µM); 96.7% and 102% and 94.6% (compound 0.1 µM); 53.2% (2×) and 60.8% (compound 0.316 µM); 1.44% and 0.67% and 2.74% (compound 1 µM); 0.23% and 0.21% and 0.06% (compound 3.16 µM); 0.22% and 0.09% (compound 10 µM). The IC50 (curve of compound) was 339 nM and 331 nM and 380 nM.

On to `CC[C@@]1(O)C(=O)OCc2c1cc1n(c2=O)Cc2cc3c(CN(C)C)c(O)ccc3nc2-1` + CN(C)c1ccc(Nc2c3ccc(NC(=O)CCN4CCCC4)cc3nc3cc(NC(=O)CCN4CCCC4)ccc23)cc1, for which the IC50 reads like this: (curve of first compound, second compound 0.0316 µM) 282 nM; (curve of first compound, second compound 0.1 µM) 251 nM; (curve of first compound, second compound 0.316 µM) 230 nM; (curve of first compound, second compound 1 µM) 272 nM; (curve of first compound, second compound 3.16 µM) 263 nM; (curve of first compound, second compound 10 µM) 183 nM. The viability, T/C was 97.5% (second compound 0.0316 µM, first compound 0.000999 µM); 98.9% (second compound 0.0316 µM, first compound 0.00316 µM); 98% (second compound 0.0316 µM, first compound 0.00999 µM); 105% (second compound 0.0316 µM, first compound 0.0316 µM); 87.9% (second compound 0.0316 µM, first compound 0.0999 µM); 45.9% (second compound 0.0316 µM, first compound 0.316 µM). Also, the viability, T/C runs as follows: (second compound 0.1 µM, first compound 0.000999 µM) 93.5%; (second compound 0.1 µM, first compound 0.00316 µM) 101%; (second compound 0.1 µM, first compound 0.00999 µM) 101%; (second compound 0.1 µM, first compound 0.0316 µM) 101%; (second compound 0.1 µM, first compound 0.0999 µM) 87.2%; (second compound 0.1 µM, first compound 0.316 µM) 40.5%. For the same molecule, the viability, T/C reads like this: (second compound 0.316 µM, first compound 0.000999 µM) 113%; (second compound 0.316 µM, first compound 0.00316 µM) 94.5%; (second compound 0.316 µM, first compound 0.00999 µM) 98.5%; (second compound 0.316 µM, first compound 0.0316 µM) 105%; (second compound 0.316 µM, first compound 0.0999 µM) 85.2%; (second compound 0.316 µM, first compound 0.316 µM) 36.4%. Also, the viability, T/C is 105% (second compound 1 µM, first compound 0.000999 µM); 100% (second compound 1 µM, first compound 0.00316 µM); 96.2% (second compound 1 µM, first compound 0.00999 µM); 101% (second compound 1 µM, first compound 0.0316 µM); 87.4% (second compound 1 µM, first compound 0.0999 µM); 44.1% (second compound 1 µM, first compound 0.316 µM). The viability, T/C is 97.9% (second compound 3.16 µM, first compound 0.000999 µM); 86.8% (second compound 3.16 µM, first compound 0.00316 µM); 96.7% (second compound 3.16 µM, first compound 0.00999 µM); 95.2% (second compound 3.16 µM, first compound 0.0316 µM); 93.1% (second compound 3.16 µM, first compound 0.0999 µM); 41.8% (second compound 3.16 µM, first compound 0.316 µM). Also, the viability, T/C was 90.2% (second compound 10 µM, first compound 0.000999 µM); 91% (second compound 10 µM, first compound 0.00316 µM); 95.8% (second compound 10 µM, first compound 0.00999 µM); 85.3% (second compound 10 µM, first compound 0.0316 µM); 74.5% (second compound 10 µM, first compound 0.0999 µM); 28.1% (second compound 10 µM, first compound 0.316 µM).

Turning to `Cn1ncnc1[C@H]1c2n[nH]c(=O)c3cc(F)cc(c23)N[C@@H]1c1ccc(F)cc1`, the viability, T/C was 101% and 92.4% and 96.4% (compound 0.000999 µM); 90.2% and 96.7% and 93.7% (compound 0.00316 µM); 104% and 101% and 99.2% (compound 0.00999 µM); 88.4% and 99.1% and 102% (compound 0.0316 µM); 106% and 100% (2×) (compound 0.0999 µM); 99% and 97.3% and 99.4% (compound 0.316 µM). The IC50 (curve of compound) is more than 316 nM.

On to `Nc1ccn(C2OC(CO)C(O)C2(F)F)c(=O)n1` (stereo not drawn), for which the viability, T/C (compound 0.0316 µM) was 53.3% and 42.5% and 53%; the viability, T/C (compound 0.1 µM) was 21.3% and 23.8% and 25.2%; the viability, T/C (compound 0.316 µM) is 16.9% and 9.13% and 18.7%; the viability, T/C (compound 1 µM) was 17.8% and 10.8% and 15.7%; the viability, T/C (compound 3.16 µM) is 14% and 12.8% and 17.5%; the viability, T/C (compound 10 µM) is 17.1% and 11.2% and 17.3%. The IC50 (curve of compound) is 35.6 nM and < 31.6 nM and 35.8 nM.
